Laboratory results published in patent publication US20040197416A1, “Nanocapsules containing a steroid for cosmetic compositions” (priority 2001, published 2004).

What was measured:
[1] = Solubility of DHEA in various oily solvents (excess DHEA, supernatant analysed by HPLC); assay type: physicochemical; settings: for RT solubility: room temperature (25° C.), after 24 hours; for solubility of DHEA: comparative
Description: The solubility measurement was performed in the following manner. DHEA was dispersed, in excess, in the solvent under consideration, and preheated to 60° C. This temperature was maintained for one hour with stirring using a magnetic bar. The suspension was then cooled to room temperature (RT, 25° C.). After 24 hours, the suspension was centrifuged to remove the undissolved DHEA crystals. The supernatant was taken up and the absence of DHEA crystals was checked by cross-polarized optical microscopy. This supernatant was then analysed by HPLC. It is considered that the amount of DHEA detected corresponds to its maximum solubility in the solvent under consideration.

[2] = system: fibroblasts; settings: cited from earlier work
[3] = system: human keratinocytes; settings: cited from earlier work
[4] = system: skin; settings: rats; cited from earlier work

SMILES | RT solubility ([1]; DHEA in Capric/caprylic triglycerides) | RT solubility ([1]; DHEA in Isopropyl palmitate) | RT solubility ([1]; DHEA in Isostearyl neopentanoate) | RT solubility ([1]; DHEA in Jojoba oil) | RT solubility ([1]; DHEA in Octyl palmitate) | RT solubility ([1]; DHEA in PPG-15 stearyl ether) | RT solubility ([1]; DHEA in Sesame oil) | RT solubility ([1]; DHEA in α-Tocopherol) | solubility of DHEA ([1]; in cetearyl isononanoate) | solubility of DHEA ([1]; in cyclopentasiloxane) | solubility of DHEA ([1]; in liquid paraffin) | solubility of DHEA ([1]; in polydimethylsiloxane (200-350 cs)) | solubility of DHEA ([1]; in squalane) | proliferation of fibroblasts [2] | viability of human keratinocytes [3] | elastin and collagen content of the skin [4] | thickness of the dermis [4]
C[C@]12CC[C@H](O)CC1=CC[C@@H]1[C@@H]2CC[C@]2(C)C(=O)CC[C@@H]12 [DHEA, dehydroepiandrosterone] | 1.77% | 1.37% | 1.30% | 1.10% | 1% | 2.68% | 1.40% | 1.65% | 0.83% | 0.04% | 0% | 0.17% | 0.10% | – | – | – | –
C[C@]12CC[C@H](O)CC1=C[C@@H](O)[C@@H]1[C@@H]2CC[C@]2(C)C(=O)CC[C@@H]12 [7α-hydroxy DHEA] | – | – | – | – | – | – | – | – | – | – | – | – | – | increase | increase | increases | increases
